Like-named read-outs stand apart in the source and are kept apart here.
What was measured:
Format in all cases: binding, Tritirachium album limber
[1] = biological target: T1, proteinase K (PK) (Parengyodontium album, UniProt P06873); test: Fluorescence quenching of proteinase K by MYR/MYT (Stern–Volmer, double-logarithmic and Van't Hoff analysis); conditions: for Stern–Volmer constant Ksv: 3.46 μM PK, pH 8.0; for Kd: double logarithmic equation, read-out: binding constant KA (converted); for fluorescence quenching rate constant Kq: τ0 1 × 10^−8 s; for enthalpy change ∆H: Van't Hoff equation, 290, 300, 310 K; for fluorescence quenching process (mechanism): from Kq versus 2 × 10^10 L·mol^−1·s^−1
T1 construct: It is a single-chain protein consisting of 279 amino acid residues and has a molecular weight of 28,930 Da; purchased Jiuding Chemicals (Shanghai, China)
T1 sequence (P06873 106-384): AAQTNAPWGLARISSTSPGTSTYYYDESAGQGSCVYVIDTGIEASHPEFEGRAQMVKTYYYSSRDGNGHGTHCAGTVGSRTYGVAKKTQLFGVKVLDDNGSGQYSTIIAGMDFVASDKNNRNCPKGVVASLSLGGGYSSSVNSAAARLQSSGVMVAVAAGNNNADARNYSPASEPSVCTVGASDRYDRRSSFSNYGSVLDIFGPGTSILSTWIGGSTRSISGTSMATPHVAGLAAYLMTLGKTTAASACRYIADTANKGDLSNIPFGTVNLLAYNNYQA
From the text: Fluorescence spectroscopy is an effective method used to investigate conformational changes of proteins and binding parameters of ligands to fluorophore residues of proteins such as Trp, Tyr or Phe. PK contains two Trp residues (Trp8 and Trp212), which make it possible to emit fluorescence. […] The process by which this phenomenon occurs is called fluorescence quenching, which is the result of the altered microenvironment of PK. To eliminate the interference of fluorescence quenching from the inner filter effect, the experiments were corrected for fluorescence intensity using Equation (1). (1) Fcorr=Fobs×e^(Aex+Aem)/2 where Fcorr and Fobs are the fluorescence emission intensity values of the corrected and pre-corrected systems, respectively. Aex and Aem are the UV–Vis absorption intensities of quencher and PK at excitation and emission wavelengths, respectively.
To investigate the differences in the fluorescence quenching patterns of the PK-MYR and PK-MYT complexes, the Stern–Volmer equation (Equation (2)) was used for analysis.
Fluorescence quenching could be categorized into two processes, namely dynamic quenching and static quenching. Dynamic quenching occurs when the quencher collides with biological macromolecules, while static quenching is caused by the formation of complexes. For the dynamic process, the increase in Ksv along with the increase in temperature is expected, and the opposite is seen for the static quenching process. […] Consequently, we know that the combination of PK and MYR/MYT could form PK-MYR and PK-MYT complexes, leading to the static quenching mechanism.
Normally, the maximum collisional quenching constant Kq is about 2 × 10^10 L·mol^−1·s^−1 for small molecule quenchers and biomolecules.
The binding constants and the number of binding sites can be calculated by using a double logarithmic equation [20, 21] (Equation (3)). (3) log[(F0−F)/F]=logKA+nAlog[Q] where KA represents the binding constant between the biomolecule and the quencher, and nA implies the number of binding sites between the quencher and the fluorophor. […] It could be proposed that the binding constant of PK-MYT is larger than that of PK-MYR at the temperature of 290 K, and these two complexes share a similar binding site number n around one.
(4) lnKA=−ΔH/RΤ+ΔS/R (5) ΔG=−RTInKA=ΔH−TΔS where R is the molar gas constant with a general value of 8.314 J·mol^−1·K^−1. ∆H and ∆S are the enthalpy and entropy changes during the fluorescence quenching, respectively. The ∆G in Equation (5) is the Gibbs free energy change in the reaction. In general, the interaction between quenchers and fluorophors can be explained by four forces, including hydrogen bonding, van der Waals forces, electrostatic forces, and hydrophobic interactions. The sign and magnitude of ∆H and ∆S can be used to distinguish the binding forces and properties of the complexes. When ∆H and ∆S are positive, hydrophobic interactions dominate; when both ∆H and ∆S are negative, they can be explained as hydrogen bonding and van der Waals forces; when ∆H and ∆S are very low negative or positive values, there exist electrostatic interactions.
(§1) A Cary Eclipse fluorescence spectrometer (Varian, Palo Alto, CA, USA) was used to determine specific changes in the fluorescence emission of PK at different temperatures. All measurements were recorded at an excitation wavelength of 278 nm and the emission wavelength of 290–450 nm. The excitation and emission slits were adjusted to 5 nm. In synchronous fluorescence measurements, ∆λ was set to 60 and 15 nm.

[2] = biological target: T1, proteinase K (PK); test: Förster resonance energy transfer (FRET) between PK (donor) and ligand (acceptor); conditions: 290 K; PK and ligand 3.46 μM
From the text: The distance and energy transfer between two chromophores, commonly known as the donor and the acceptor, may be computed by the Förster resonance energy transfer (FRET) theory. […] The energy transfer efficiency and binding distance were estimated according to Equation (6). (6) E=1−F/F0=RC^6/RC^6+r^6 where E is the energy transfer efficiency between the donor and the acceptor, r is the binding distance between the donor and the acceptor, and RC is the critical distance when the energy transfer efficiency is 50%, the value of which can be calculated using Equation (7). (7) RC^6=8.8×10^−25(K^2⋅Φ⋅n^−4⋅J) where K^2 is the spatial orientation factor associated with the geometry of the dipole donor and acceptor and generally takes the value of 2/3. Φ is the fluorescence quantum yield of the donor. The symbol n is the average refractive index of the medium and usually takes the value of 1.336 as the average value of water and organic matter. J is the spectral overlap integral between the fluorescence emission spectrum of the donor and the absorption spectrum of the acceptor, and the value is calculated by Equation (8). (8) J=∑(FD(λ)⋅ε(λ)⋅λ^4⋅Δλ)/∑(FD(λ)⋅Δλ) where FD(λ) is the corrected fluorescence intensity of the donor in the wavelength range, ε(λ) is the molar absorption constant of the acceptor at the wavelength, and ∆λ is the span of the wavelength. Following the FRET theory, the main factors affecting the energy transfer efficiency include the fluorescence production of the donor, the overlap of the fluorescence emission spectrum of the donor with the UV–Vis absorption spectrum of the acceptor, and the binding distance between the donor and the acceptor that must be within a specified range of 1 to 10 nm.
Förster resonance energy transfer (FRET) was tracked by overlapping PK emission spectrum (donor) with MYR or MYT absorption spectrum (acceptor). A concentration of 3.46 μM PK was chosen for the fluorescence emission spectroscopy measurements.

[3] = biological target: T1, proteinase K (PK); test: Site-tagged competition experiments with ibuprofen and cytisine; conditions: for Ksv of free PK: no site marker; for Ksv of PK–cytisine complex as % of that of free PK: site marker cytisine; for Ksv of PK–ibuprofen complex as % of that of free PK: site marker ibuprofen
From the text: To determine the binding site of PK, two typical ligands including ibuprofen and cytisine were chosen to perform competitive binding experiments. […] The site-labeling experiments were still performed using Equations (1) and (2) for correction and data analysis, respectively. […] It has been well known that neutral compounds such as ibuprofen and cytisine are likely to bind with proteins through hydrophobic interactions and hydrogen binding. […] This is consistent with the results obtained from the thermodynamic calculations.
For in site labeling competition experiments, an agent such as ibuprofen or cytisine of 3.46 μM was first mixed with PK. […] The excitation wavelengths for PK–ibuprofen and PK–cytisine were 265 and 280 nm, respectively. Fluorescence spectra were analyzed using the Stern–Volmer equation.

[4] = biological target: T1, proteinase K (PK); test: Synchronous fluorescence spectroscopy of PK with ligand; conditions: 300 K, ligand increased from 0.0 to 25.0 μM; for maximum emission wavelength of PK, synchronous fluorescence (Figure 6B,D): peak near 274 nm; for maximum emission wavelength of PK, synchronous fluorescence (Figure 6A / 6C): peak near 279 nm
Description: Synchronous fluorescence spectroscopy studies were performed to observe changes in the molecular environment of Tyr residues and Trp residues in the host structure, which are mainly responsible for fluorescence emission. Therefore, we used the characteristic information of Tyr and Trp residues, ∆λ = 15 nm and ∆λ = 60 nm, respectively, to probe the changes in the PK-MYR and PK-MYT complexes.
as §1

[5] = site marker cytisine 3.46 μM, room temperature, 1 h
[6] = site marker ibuprofen 3.46 μM, room temperature, 1 h

Compound | Gibbs free energy change ∆G ([1]; T 290 K) [kcal/mol] | number of binding sites nA ([1]; T 290 K) | Stern–Volmer constant Ksv ([1]; T 290 K) | fluorescence quenching rate constant Kq ([1]; T 290 K) | Gibbs free energy change ∆G ([1]; T 300 K) [kcal/mol] | number of binding sites nA ([1]; T 300 K) | Stern–Volmer constant Ksv ([1]; T 300 K) | fluorescence quenching rate constant Kq ([1]; T 300 K) | Gibbs free energy change ∆G ([1]; T 310 K) [kcal/mol] | number of binding sites nA ([1]; T 310 K) | Stern–Volmer constant Ksv ([1]; T 310 K) | fluorescence quenching rate constant Kq ([1]; T 310 K) | enthalpy change ∆H [1] [kcal/mol] | fluorescence quenching process (mechanism) [1] | critical distance RC [2] [nm] | energy transfer efficiency E [2] | Ksv of free PK [3] [L/mol] | Ksv of PK–cytisine complex as % of that of free PK [3] [%] | Stern–Volmer equation quenching constant KSV [3, 5] | Ksv of PK–ibuprofen complex as % of that of free PK [3] [%] | other results
O=c1c(O)c(-c2cc(O)c(O)c(O)c2)oc2cc(O)cc(O)c12 [MYR, Myricetin] | -6.601 | 1.0 | 3.57 10^4 L·mol^−1 | 3.57 10^12 L·mol^−1·s^−1 | -6.03 | 0.9 | 2.46 10^4 L·mol^−1 | 2.46 10^12 L·mol^−1·s^−1 | -5.442 | 0.9 | 1.90 10^4 L·mol^−1 | 1.90 10^12 L·mol^−1·s^−1 | -23.42 | static | 3.61 | 0.105 | 24600 | 70.73 | 1.74 10^4 L·mol^−1 | 69.51 | Kd ([1]; T 290 K): 16.9 µM; Kd ([1]; T 300 K): 40.5 µM; Kd ([1]; T 310 K): 114 µM; binding distance r [2]: 5.11 nm; Stern–Volmer equation quenching constant KSV [3, 6]: 1.71 10^4 L·mol^−1; Stern–Volmer equation quenching constant KSV ([3]; site marker: blank (free PK)): 2.46 10^4 L·mol^−1; maximum emission wavelength of PK, synchronous fluorescence (Figure 6B,D) [4]: no shift; maximum emission wavelength of PK, synchronous fluorescence (Figure 6A / 6C) [4]: 279.0 nm
Myricitrin [MYT] | -6.558 | 1.1 | 2.20 10^4 L·mol^−1 | 2.20 10^12 L·mol^−1·s^−1 | -6.018 | 1.0 | 2.06 10^4 L·mol^−1 | 2.06 10^12 L·mol^−1·s^−1 | -5.28 | 0.9 | 1.88 10^4 L·mol^−1 | 1.88 10^12 L·mol^−1·s^−1 | -25.098 | static | 3.42 | 0.128 | 20600 | 38.14 | 0.78 10^4 L·mol^−1 | 61.52 | Stern–Volmer equation quenching constant KSV [3, 6]: 1.27 10^4 L·mol^−1; Stern–Volmer equation quenching constant KSV ([3]; site marker: blank (free PK)): 2.06 10^4 L·mol^−1; maximum emission wavelength of PK, synchronous fluorescence (Figure 6B,D) [4]: 274.0 to 276.0 nm; maximum emission wavelength of PK, synchronous fluorescence (Figure 6A / 6C) [4]: 279.0 to 280.0 nm

— publication PMC10048853 (International Journal of Molecular Sciences, 2023)
